Measurements taken from ChEMBL document CHEMBL1909046, “DrugMatrix in vitro pharmacology data”.
Where a SMILES comes first, the peptide text is derived from it. Bridges are numbered along the chain shown (N, C = ends). [ ]: non-standard residue; d: D form. The star is where a group is joined. Threoninol(2S,3R) = C[C@@H](O)[C@H](CO)N*

Experiments:
[1] = DRUGMATRIX: Calcium Channel Type L, Benzothiazepine radioligand binding (ligand: [3H] Diltiazem); type: cell membranes, Rattus norvegicus, Wistar, Brain, Membrane; conditions: Not Active = under 50% inhibition at 10 µM
[2] = target: Insulin receptor (Rattus norvegicus, UniProt P15127); type: cell membranes, Wistar, Liver, Membrane; note: in other assays of this panel Not Active means under 50% inhibition at 10 µM
Insulin receptor, sequence (P15127 27-759 limits assumed): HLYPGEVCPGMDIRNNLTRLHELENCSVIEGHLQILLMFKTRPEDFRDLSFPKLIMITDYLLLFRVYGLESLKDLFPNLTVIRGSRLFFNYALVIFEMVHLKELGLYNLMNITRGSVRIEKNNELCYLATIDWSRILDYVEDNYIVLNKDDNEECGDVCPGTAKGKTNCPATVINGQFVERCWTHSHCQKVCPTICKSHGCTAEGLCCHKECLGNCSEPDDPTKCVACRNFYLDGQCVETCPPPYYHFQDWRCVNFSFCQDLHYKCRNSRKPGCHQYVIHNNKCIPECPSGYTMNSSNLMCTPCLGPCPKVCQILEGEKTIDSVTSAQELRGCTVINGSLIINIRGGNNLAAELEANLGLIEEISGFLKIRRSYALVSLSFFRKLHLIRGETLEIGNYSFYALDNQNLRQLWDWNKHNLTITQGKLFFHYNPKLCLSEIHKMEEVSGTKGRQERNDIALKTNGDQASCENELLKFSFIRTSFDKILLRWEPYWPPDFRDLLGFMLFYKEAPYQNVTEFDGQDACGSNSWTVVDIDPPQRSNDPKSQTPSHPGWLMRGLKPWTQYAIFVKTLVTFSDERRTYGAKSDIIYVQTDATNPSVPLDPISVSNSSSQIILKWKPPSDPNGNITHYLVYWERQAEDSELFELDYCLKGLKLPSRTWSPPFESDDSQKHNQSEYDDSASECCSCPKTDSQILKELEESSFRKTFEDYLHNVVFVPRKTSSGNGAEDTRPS
Insulin receptor, sequence (P15127 764-1383 limits assumed): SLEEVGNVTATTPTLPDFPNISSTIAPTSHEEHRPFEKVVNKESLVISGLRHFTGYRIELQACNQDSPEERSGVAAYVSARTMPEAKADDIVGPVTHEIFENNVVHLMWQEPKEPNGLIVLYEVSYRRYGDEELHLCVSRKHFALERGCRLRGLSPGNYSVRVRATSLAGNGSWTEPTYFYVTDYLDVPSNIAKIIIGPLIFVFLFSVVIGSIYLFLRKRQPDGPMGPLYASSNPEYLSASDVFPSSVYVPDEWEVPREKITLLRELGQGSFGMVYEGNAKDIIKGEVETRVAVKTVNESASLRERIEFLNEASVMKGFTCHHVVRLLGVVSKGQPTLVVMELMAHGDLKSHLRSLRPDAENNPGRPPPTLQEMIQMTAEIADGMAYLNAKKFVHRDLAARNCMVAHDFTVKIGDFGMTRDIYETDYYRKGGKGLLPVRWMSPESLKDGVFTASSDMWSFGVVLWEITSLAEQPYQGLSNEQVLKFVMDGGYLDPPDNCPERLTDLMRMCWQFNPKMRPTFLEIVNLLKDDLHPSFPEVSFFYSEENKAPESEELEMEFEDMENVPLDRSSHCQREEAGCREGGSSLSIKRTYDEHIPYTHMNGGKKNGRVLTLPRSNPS

[3] = target: T1, Muscarinic acetylcholine receptor M4 (Homo sapiens, UniProt P08173); type: cell membranes, CHO-K1, Membrane; conditions: cho-k1; note: in other assays of this panel Not Active means under 50% inhibition at 10 µM
T1 sequence (P08173 whole entry): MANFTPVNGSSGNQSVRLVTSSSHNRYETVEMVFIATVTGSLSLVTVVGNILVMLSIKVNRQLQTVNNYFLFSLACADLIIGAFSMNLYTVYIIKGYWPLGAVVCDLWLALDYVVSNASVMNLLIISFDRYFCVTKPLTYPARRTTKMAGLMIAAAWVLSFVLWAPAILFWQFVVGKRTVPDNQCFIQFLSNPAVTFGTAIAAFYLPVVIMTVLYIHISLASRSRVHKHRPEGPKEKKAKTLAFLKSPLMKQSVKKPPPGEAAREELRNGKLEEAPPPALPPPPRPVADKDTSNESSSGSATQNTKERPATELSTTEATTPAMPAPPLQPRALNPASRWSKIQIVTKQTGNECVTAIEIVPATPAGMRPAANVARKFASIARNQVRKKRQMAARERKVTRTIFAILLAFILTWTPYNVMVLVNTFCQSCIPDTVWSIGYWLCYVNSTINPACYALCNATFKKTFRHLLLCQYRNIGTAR

[4] = DRUGMATRIX: Phosphodiesterase PDE4 enzyme inhibition (substrate: [3H]cAMP + cAMP); conditions: u-937; Not Active = under 50% inhibition at 10 µM
[5] = target: T2, Cytochrome P450 1A2 (Homo sapiens, UniProt P05177); conditions: bti-tn-5b1-4; note: in other assays of this panel Not Active means under 50% inhibition at 10 µM
T2 sequence (P05177 whole entry): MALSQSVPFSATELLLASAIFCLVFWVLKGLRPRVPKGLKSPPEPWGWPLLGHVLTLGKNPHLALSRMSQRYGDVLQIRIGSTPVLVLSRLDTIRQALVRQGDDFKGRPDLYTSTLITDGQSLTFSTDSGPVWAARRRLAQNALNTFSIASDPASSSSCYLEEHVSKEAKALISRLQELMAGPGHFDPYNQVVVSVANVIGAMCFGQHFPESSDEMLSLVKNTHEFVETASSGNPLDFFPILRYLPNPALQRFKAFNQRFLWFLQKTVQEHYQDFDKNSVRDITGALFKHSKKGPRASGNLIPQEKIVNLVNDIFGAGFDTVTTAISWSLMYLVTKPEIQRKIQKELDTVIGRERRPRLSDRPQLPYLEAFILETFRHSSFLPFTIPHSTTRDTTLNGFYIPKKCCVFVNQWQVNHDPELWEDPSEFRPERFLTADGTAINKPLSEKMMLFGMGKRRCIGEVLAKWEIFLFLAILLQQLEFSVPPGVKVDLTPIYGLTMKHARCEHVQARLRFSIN

[6] = target: T3, Estrogen receptor (Homo sapiens, UniProt P03372); conditions: sf9; note: in other assays of this panel Not Active means under 50% inhibition at 10 µM
T3 sequence (P03372 whole entry): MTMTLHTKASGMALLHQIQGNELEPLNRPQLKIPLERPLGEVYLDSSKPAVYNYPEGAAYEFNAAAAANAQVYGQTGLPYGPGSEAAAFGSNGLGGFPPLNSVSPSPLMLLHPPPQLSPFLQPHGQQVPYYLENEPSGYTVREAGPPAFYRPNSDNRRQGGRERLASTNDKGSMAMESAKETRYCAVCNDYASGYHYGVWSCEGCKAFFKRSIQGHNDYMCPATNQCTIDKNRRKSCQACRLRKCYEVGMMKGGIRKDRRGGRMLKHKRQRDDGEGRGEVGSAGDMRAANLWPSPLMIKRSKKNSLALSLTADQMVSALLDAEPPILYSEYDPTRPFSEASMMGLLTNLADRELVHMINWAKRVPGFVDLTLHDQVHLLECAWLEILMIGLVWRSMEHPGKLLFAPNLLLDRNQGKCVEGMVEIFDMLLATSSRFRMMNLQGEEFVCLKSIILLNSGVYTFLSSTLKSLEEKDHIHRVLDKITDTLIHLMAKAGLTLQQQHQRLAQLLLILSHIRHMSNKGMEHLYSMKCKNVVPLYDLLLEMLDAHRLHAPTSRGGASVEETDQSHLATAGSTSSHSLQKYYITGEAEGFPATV

COc1ccccc1C(=O)N1CCC(Cc2ccccc2)CC1
Not Active: IC50 [1] | Ki [1] | IC50 [2] | IC50 [3] | IC50 [4] | Ki [4] | IC50 [5] | Ki [5] | IC50 [6]

Cc1ccccc1C(=O)N1CCC(Cc2ccccc2)CC1
Not Active: IC50 [1] | Ki [1] | IC50 [2] | IC50 [3] | IC50 [4] | Ki [4] | IC50 [5] | Ki [5] | IC50 [6]

N=C(Nc1ccccc1)Nc1ccccc1
Not Active: IC50 [1] | Ki [1] | IC50 [2] | IC50 [3] | IC50 [4] | Ki [4] | IC50 [5] | Ki [5] | IC50 [6]

C[C@@H](O)[C@H](CO)NC(=O)[C@@H]1CSSC[C@H](NC(=O)[C@H](N)Cc2ccccc2)C(=O)N[C@@H](Cc2ccccc2)C(=O)N[C@H](Cc2c[nH]c3ccccc23)C(=O)N[C@@H](CCCCN)C(=O)N[C@@H]([C@@H](C)O)C(=O)N1 (H-[dF]CF[dW]KTC-{Threoninol(2S,3R)}; disulfide 2-7)
Not Active: IC50 [1] | Ki [1] | IC50 [2] | IC50 [3] | IC50 [4] | Ki [4] | IC50 [5] | Ki [5] | IC50 [6]

S=C=Nc1cccc2ccccc12 [1-NAPHTHYLISOTHIOCYANATE]
Not Active: IC50 [1] | Ki [1] | IC50 [2] | IC50 [3] | IC50 [4] | Ki [4] | IC50 [6]

C[C@](O)(CS(=O)(=O)c1ccc(F)cc1)C(=O)Nc1ccc(C#N)c(C(F)(F)F)c1 [(R)-BICALUTAMIDE]
Not Active: IC50 [1] | Ki [1] | IC50 [2] | IC50 [3] | IC50 [4] | Ki [4] | IC50 [5] | Ki [5] | IC50 [6]

CCCC(=O)Nc1ccc(OCC(O)CNC(C)C)c(C(C)=O)c1 (stereo not drawn) [ACEBUTOLOL]
Not Active: IC50 [1] | Ki [1] | IC50 [2] | IC50 [3] | IC50 [4] | Ki [4] | IC50 [5] | Ki [5] | IC50 [6]

COc1cc2c(c3oc(=O)c4c(c13)CCC4=O)[C@@H]1C=CO[C@@H]1O2 [AFLATOXIN]
Not Active: IC50 [1] | Ki [1] | IC50 [2] | Ki [2] | IC50 [3] | Ki [3] | IC50 [4] | Ki [4] | IC50 [5] | Ki [5] | IC50 [6] | Ki [6]

N=C(N)NC(=O)c1nc(Cl)c(N)nc1N [AMILORIDE]
Not Active: IC50 [1] | Ki [1] | IC50 [2] | IC50 [3] | IC50 [4] | Ki [4] | IC50 [5] | Ki [5] | IC50 [6]

O=NN(CCCl)C(=O)NCCCl [CARMUSTINE]
Not Active: IC50 [1] | Ki [1] | IC50 [2] | IC50 [3] | IC50 [4] | Ki [4] | IC50 [6]

CC1=C(C(=O)O)N2C(=O)[C@@H](NC(=O)[C@H](N)c3ccccc3)[C@H]2SC1 [CEPHALEXIN ANHYDROUS]
Not Active: IC50 [1] | Ki [1] | IC50 [2] | IC50 [3] | IC50 [4] | Ki [4] | IC50 [6]

O=C(N[C@H](CO)[C@H](O)c1ccc([N+](=O)[O-])cc1)C(Cl)Cl [CHLORAMPHENICOL]
Not Active: IC50 [1] | Ki [1] | IC50 [2] | IC50 [3] | IC50 [4] | Ki [4] | IC50 [6]

CCOC(=O)C(C)(C)Oc1ccc(Cl)cc1 [CLOFIBRATE]
Not Active: IC50 [1] | Ki [1] | IC50 [2] | IC50 [3] | IC50 [4] | Ki [4] | IC50 [6]

C/C=C/C[C@@H](C)[C@@H](O)[C@H]1C(=O)N[C@@H](CC)C(=O)N(C)CC(=O)N(C)[C@@H](CC(C)C)C(=O)N[C@@H](C(C)C)C(=O)N(C)[C@@H](CC(C)C)C(=O)N[C@@H](C)C(=O)N[C@H](C)C(=O)N(C)[C@@H](CC(C)C)C(=O)N(C)[C@@H](CC(C)C)C(=O)N(C)[C@@H](C(C)C)C(=O)N1C [CYCLOSPORINE]
Not Active: IC50 [1] | Ki [1] | IC50 [2] | IC50 [3] | IC50 [4] | Ki [4] | IC50 [6]

COc1ccc2c(c1)[C@]13CCCC[C@@H]1[C@H](C2)N(C)CC3 [DEXTROMETHORPHAN]
Not Active: IC50 [1] | Ki [1] | IC50 [2] | IC50 [3] | IC50 [4] | Ki [4] | IC50 [6]

C#C[C@]1(O)CC[C@H]2[C@@H]3CCc4cc(OC)ccc4[C@H]3CC[C@@]21C [MESTRANOL]
Not Active: IC50 [1] | Ki [1] | IC50 [2] | IC50 [3] | IC50 [4] | Ki [4] | IC50 [5] | Ki [5]

CC(=O)Nc1cccc(O)c1 [METACETAMOL]
Not Active: IC50 [1] | Ki [1] | IC50 [2] | IC50 [3] | IC50 [4] | Ki [4] | IC50 [6]

COC(=O)C1=C(C)NC(C)=C(C(=O)OCC(C)C)C1c1ccccc1[N+](=O)[O-] (stereo not drawn) [NISOLDIPINE]
Not Active: IC50 [2] | IC50 [3] | IC50 [4] | Ki [4] | IC50 [6]
2.21 nM: Ki ([1]; read-out: Ki)
2.48 nM: IC50 ([1]; read-out: IC50)

C#C[C@]1(OC(C)=O)CC[C@H]2[C@@H]3CCC4=CC(=O)CC[C@@H]4[C@H]3CC[C@@]21C [NORETHINDRONE ACETATE]
Not Active: IC50 [1] | Ki [1] | IC50 [2] | IC50 [3] | IC50 [4] | Ki [4] | IC50 [5] | Ki [5]

CCn1cc(C(=O)O)c(=O)c2cc(F)c(N3CCN(C)CC3)cc21 [PEFLOXACIN]
Not Active: IC50 [1] | Ki [1] | IC50 [2] | IC50 [3] | IC50 [4] | Ki [4] | IC50 [6]

O=C(C1CCCCC1)N1CC(=O)N2CCc3ccccc3C2C1 (stereo not drawn) [PRAZIQUANTEL]
Not Active: IC50 [1] | Ki [1] | IC50 [2] | IC50 [3] | IC50 [4] | Ki [4] | IC50 [5] | Ki [5]

CCN(CC)CCOC(=O)c1ccc(N)cc1 [PROCAINE]
Not Active: IC50 [1] | Ki [1] | IC50 [2] | IC50 [3] | IC50 [4] | Ki [4] | IC50 [5] | Ki [5]

CCCN(CCC)C(=O)C(CCC(=O)O)NC(=O)c1ccccc1 (stereo not drawn) [PROGLUMIDE]
Not Active: IC50 [1] | Ki [1] | IC50 [2] | IC50 [3] | IC50 [4] | Ki [4] | IC50 [5] | Ki [5]

OC(CCN1CCCCC1)(c1ccccc1)C1CCCCC1 (stereo not drawn) [TRIHEXYPHENIDYL]
4280 nM: Ki ([1]; read-out: Ki)
Not Active: IC50 [2] | IC50 [4] | Ki [4] | IC50 [5] | Ki [5] | IC50 [6]
4810 nM: IC50 ([1]; read-out: IC50)
